Assay results: patent US20170101383A1, “DIAMINOTRIAZINE DERIVATIVES AS HERBICIDES” (BASF SE, priority 2014, published 2017)

Columns and labels:
Assay type in all cases: in vivo
Amaranthus retroflexus [1] = experiment: greenhouse pre-emergence treatment, AMARE; settings: 0.500 kg/ha, scale 0 to 100
Excerpt: (§1) The seeds of the test plants were sown separately for each species. For the pre-emergence treatment, the active ingredients, which had been suspended or emulsified in water, were applied directly after sowing by means of finely distributing nozzles. The containers were irrigated gently to promote germination and growth and subsequently covered with transparent plastic hoods until the plants had rooted. This cover caused uniform germination of the test plants, unless this had been impaired by the active ingredients. Depending on the species, the plants were kept at 10-25° C. or 20-35° C., respectively. The test period extended over 2 to 4 weeks. During this time, the plants were tended, and their response to the individual treatments was evaluated. Evaluation was carried out using a scale from 0 to 100. 100 means no emergence of the plants, or complete destruction of at least the aerial moieties, and 0 means no damage, or normal course of growth. A moderate herbicidal activity is given at values of at least 60, a good herbicidal activity is given at values of at least 70, and a very good herbicidal activity is given at values of at least 85. The plants used in the greenhouse experiments were of the following species: [table]

Setaria faberi [2] = experiment: greenhouse pre-emergence treatment, SETFA; settings: 0.500 kg/ha, scale 0 to 100
Excerpt: as §1

Apera spica-venti [3] = experiment: greenhouse pre-emergence treatment, APESV; settings: 0.500 kg/ha, scale 0 to 100
Excerpt: as §1

Apera spica-venti [4] = experiment: greenhouse post-emergence treatment, APESV; settings: 0.500 kg/ha, scale 0 to 100
Excerpt: (§2) The seeds of the test plants were sown separately for each species. For the post-emergence treatment, the test plants were first grown to a height of 3 to 15 cm, depending on the plant habit, and only then treated with the active ingredients which had been suspended or emulsified in water. For this purpose, the test plants were either sown directly and grown in the same containers, or they were first grown separately as seedlings and transplanted into the test containers a few days prior to treatment. Depending on the species, the plants were kept at 10-25° C. or 20-35° C., respectively. The test period extended over 2 to 4 weeks. During this time, the plants were tended, and their response to the individual treatments was evaluated. Evaluation was carried out using a scale from 0 to 100. 100 means no emergence of the plants, or complete destruction of at least the aerial moieties, and 0 means no damage, or normal course of growth. A moderate herbicidal activity is given at values of at least 60, a good herbicidal activity is given at values of at least 70, and a very good herbicidal activity is given at values of at least 85. The plants used in the greenhouse experiments were of the following species: [table]

Setaria faberi [5] = experiment: greenhouse post-emergence treatment, SETFA; settings: scale 0 to 100
Excerpt: as §2

Amaranthus retroflexus [6] = experiment: greenhouse post-emergence treatment, AMARE; settings: for herbicidal activity against AMARE / pest or weed control at 500 g/ha: 0.500 kg/ha; for herbicidal activity against AMARE: scale 0 to 100; for pest or weed control at 1000 g/ha / pest or weed control at 500 g/ha: Amaranthus retroflexus, scale 0 to 100, read-out: herbicidal activity against AMARE; for pest or weed control at 1000 g/ha: 1.000 kg/ha
Excerpt: as §2

Alopecurus myosuroides = experiment: greenhouse pre-emergence treatment, ALOMY; settings: 0.500 kg/ha, scale 0 to 100
Excerpt: as §1

Abutilon theophrasti [7] = experiment: greenhouse post-emergence treatment, ABUTH; settings: 1.000 kg/ha, scale 0 to 100
Excerpt: as §2

Abutilon theophrasti [8] = experiment: greenhouse pre-emergence treatment, ABUTH; settings: 0.500 kg/ha, scale 0 to 100
Excerpt: as §1

Row | SMILES | herbicidal activity against AMARE (Amaranthus retroflexus [1]) | herbicidal activity against SETFA (Setaria faberi [2]) | herbicidal activity against APESV (Apera spica-venti [3]) | herbicidal activity against APESV (Apera spica-venti [4]) | herbicidal activity against SETFA (Setaria faberi [5]; 0.500 kg/ha) | herbicidal activity against AMARE (Amaranthus retroflexus [6]) | herbicidal activity against ALOMY (Alopecurus myosuroides) | pest or weed control at 1000 g/ha (Amaranthus retroflexus [6]) | herbicidal activity against ABUTH (Abutilon theophrasti [7]) | herbicidal activity against ABUTH (Abutilon theophrasti [8]) | pest or weed control at 500 g/ha (Amaranthus retroflexus [6]) | herbicidal activity against SETFA (Setaria faberi [5]; 1.000 kg/ha)
1 | CC1CCCN1c1nc(N)nc(Nc2c(F)c(F)c(F)c(F)c2F)n1 (stereo not shown) [Example 20] | very good (a very good herbicidal activity is given at values of at least 85) | very good (a very good herbicidal activity is given at values of at least 85) | very good (a very good herbicidal activity is given at values of at least 85) |  |  |  |  |  |  |  |  | 
2 | COCC1CCCN1c1nc(N)nc(Nc2c(F)c(F)c(F)c(F)c2F)n1 (stereo not shown) [Example 31] | good to very good |  | good to very good | very good (a very good herbicidal activity is given at values of at least 85) |  |  |  |  |  |  |  | 
3 | COC[C@H]1CCCN1c1nc(N)nc(Nc2c(F)c(F)cc(F)c2F)n1 [Example 26] | very good (a very good herbicidal activity is given at values of at least 85) | very good (a very good herbicidal activity is given at values of at least 85) | very good (a very good herbicidal activity is given at values of at least 85) | very good (a very good herbicidal activity is given at values of at least 85) | very good (a very good herbicidal activity is given at values of at least 85) | very good (a very good herbicidal activity is given at values of at least 85) | very good (a very good herbicidal activity is given at values of at least 85) |  |  |  |  | 
4 | Nc1nc(Nc2c(F)c(F)c(F)c(F)c2F)nc(N2CCCCCC2)n1 [Example 7] |  | good to very good | good to very good |  |  |  | good to very good | ≥ 85% | very good (a very good herbicidal activity is given at values of at least 85) |  |  | 
5 | COC[C@H]1CCCN1c1nc(N)nc(Nc2c(F)c(F)c(F)c(F)c2F)n1 [Example 25] | good to very good | good to very good | good to very good | very good (a very good herbicidal activity is given at values of at least 85) | very good (a very good herbicidal activity is given at values of at least 85) | very good (a very good herbicidal activity is given at values of at least 85) | good to very good |  |  |  |  | 
6 | CC1CCC(C)N1c1nc(N)nc(Nc2c(F)c(F)c(F)c(F)c2F)n1 (stereo not shown) [Example 17] | very good (a very good herbicidal activity is given at values of at least 85) | very good (a very good herbicidal activity is given at values of at least 85) | very good (a very good herbicidal activity is given at values of at least 85) |  |  |  |  |  |  |  |  | 
7 | CN(Cc1ccccc1)c1nc(N)nc(Nc2c(F)c(F)c(F)c(F)c2F)n1 [Example 10] |  |  |  |  |  |  |  | ≥ 85% | very good (a very good herbicidal activity is given at values of at least 85) |  |  | 
8 | CCN(C)c1nc(N)nc(Nc2c(F)c(F)cc(F)c2F)n1 [Example 22] | very good (a very good herbicidal activity is given at values of at least 85) |  | very good (a very good herbicidal activity is given at values of at least 85) |  |  |  | very good (a very good herbicidal activity is given at values of at least 85) |  |  |  |  | 
9 | CC1CCCN1c1nc(N)nc(Nc2c(F)c(F)cc(F)c2F)n1 (stereo not shown) [Example 21] | very good (a very good herbicidal activity is given at values of at least 85) | very good (a very good herbicidal activity is given at values of at least 85) |  |  |  |  | very good (a very good herbicidal activity is given at values of at least 85) |  |  |  |  | 
10 | Nc1nc(Nc2c(F)c(F)c(F)c(F)c2F)nc(N2CCOCC2)n1 [Example 23] | very good (a very good herbicidal activity is given at values of at least 85) |  | very good (a very good herbicidal activity is given at values of at least 85) |  |  |  |  |  |  | very good (a very good herbicidal activity is given at values of at least 85) |  | 
11 | CCN(CC)c1nc(N)nc(Nc2c(F)c(F)cc(F)c2F)n1 [Example 36] | good to very good |  | good to very good | very good (a very good herbicidal activity is given at values of at least 85) |  |  |  |  |  |  | ≥ 85% | 
12 | COCC1CCCN1c1nc(N)nc(Nc2c(F)c(F)cc(F)c2F)n1 (stereo not shown) [Example 32] | good to very good | good to very good | good to very good | very good (a very good herbicidal activity is given at values of at least 85) | very good (a very good herbicidal activity is given at values of at least 85) |  | good to very good |  |  |  | ≥ 85% | 
13 | Nc1nc(Nc2c(F)c(F)c(F)c(F)c2F)nc(N2CCCC2)n1 [Example 6] |  | very good (a very good herbicidal activity is given at values of at least 85) | very good (a very good herbicidal activity is given at values of at least 85) |  |  |  | very good (a very good herbicidal activity is given at values of at least 85) | ≥ 85% | very good (a very good herbicidal activity is given at values of at least 85) |  |  | very good (a very good herbicidal activity is given at values of at least 85)
14 | COC[C@@H]1CCCN1c1nc(N)nc(Nc2c(F)c(F)c(F)c(F)c2F)n1 [Example 29] | very good (a very good herbicidal activity is given at values of at least 85) |  | very good (a very good herbicidal activity is given at values of at least 85) | very good (a very good herbicidal activity is given at values of at least 85) |  | very good (a very good herbicidal activity is given at values of at least 85) |  |  |  |  |  | 
15 | COC[C@@H]1CCCN1c1nc(N)nc(Nc2c(F)c(F)cc(F)c2F)n1 [Example 30] | very good (a very good herbicidal activity is given at values of at least 85) |  | very good (a very good herbicidal activity is given at values of at least 85) | very good (a very good herbicidal activity is given at values of at least 85) |  | very good (a very good herbicidal activity is given at values of at least 85) |  |  |  |  |  | 
